# Read-outs that look alike come from different tables or passages of the source.
# Legend:
# FXR LBD = biological target: T1, FXR LBD (Homo sapiens, UniProt Q96RI1); test: LanthaScreen TR-FRET FXR Coactivator Assay, antagonistic mode (SRC-2 peptide recruitment); type: biochemical
# T1 construct: purchased ThermoFisher Scientific PV4833
# T1 sequence (Q96RI1 262-486 limits assumed): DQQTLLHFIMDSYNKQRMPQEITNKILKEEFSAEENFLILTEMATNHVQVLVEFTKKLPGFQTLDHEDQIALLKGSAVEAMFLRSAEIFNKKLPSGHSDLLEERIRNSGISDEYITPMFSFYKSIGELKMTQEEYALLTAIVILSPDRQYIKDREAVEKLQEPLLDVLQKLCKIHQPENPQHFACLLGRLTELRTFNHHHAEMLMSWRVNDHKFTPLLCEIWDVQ
# Description: The LanthaScreen® TR-FRET FXR Coactivator Assay (goat, PV4833, ThermoFisher Scientific) was performed to assess the affinity of tested compounds to FXR ligand-binding domain (LBD) in agonistic and antagonistic models. In the antagonistic assays, the FXR LBD was co-incubated with OCA or GW4064, together with tested ligands in increasing concentrations. The assay was performed according to the manufacturer’s protocols. […] Data have been obtained from three independent experiments performed in 4 replicates.
# HepG2 = test: MTS viability assay; type: cell-based, human; conditions: Homo sapiens; HepG2, 24 h, MTS; read-out: IC50 (µM), cell viability
# Description: (§1) The potential cytotoxicity of 7-alkylated chenodeoxycholic acid derivatives were assessed in different human (HepG2, HepaRG and Huh7) and murine (AML12) hepatocyte-derived cell lines. For this purpose, hepatic cells were treated at increasing concentration for 24h and analyzed by MTS viability assay.
# (§2) Table S2. Cell viability was determined using the Cell Titer 96 Aqueous One Solution Cell Proliferation Assay (MTS assay) after treatment with test compounds for 24 h in four different hepatic cell lines. Vehicle (0.1% DMSO) and background (10% SDS; v/v, toxic control) controls of cell viability were set to be 100% and 0%, respectively.
# HepaRG = test: MTS viability assay; type: cell-based, human; conditions: Homo sapiens, 24 h, MTS, read-out: IC50 (µM), cell viability
# Description: as §1, §2
# MTS viability assay [1] = type: cell-based, human; conditions: human, vehicle = 100%
# Description: as §1, §2
# Huh7 = test: MTS viability assay; type: cell-based, human; conditions: Homo sapiens, Huh-7; Huh7, 24 h, MTS; read-out: IC50 (µM), cell viability
# Description: as §1, §2
# MTS viability assay [2] = type: cell-based, murine; conditions: mouse, AML12 cells; AML12, 24 h, vehicle = 100%
# Description: as §1, §2
# AML12 = test: MTS viability assay; type: cell-based, murine; conditions: Mus musculus; AML12, 24 h, MTS; read-out: IC50 (µM), cell viability
# Description: as §1, §2
# [3] = tested on: SHP protein, HepaRG cells; test: Western blot of SHP protein in HepaRG cells; type: cell-based, human; conditions: with OCA 1 µM, 48 h
# Description: Protein determination was performed from whole-cell lysates of terminally differentiated HepaRG cells treated for 48 h. Protein levels were quantified using a PierceTM BCA Protein Assay Kit (ThermoFisher Scientific, Waltham, United States) according to the manufacturer's protocol. The western blotting analysis was performed as described in our previous paper ([Stefela et al., 2020]) with mouse monoclonal anti-SHP antibody (clone OTI5F10, Cat. No. TA806319, Origene, Rockville, MD, United States) and antibody against GAPDH (Cell Signaling Technology, Leiden, the Netherlands) as a loading control. Protein concentration was measured using the BCA protein assay (Sigma-Aldrich/Merck, Prague, Czech Republic). Protein expression quantification was done using densitometric software (LabImage, Kapelan Bio-Imaging, Germany).
# FIGURE 6 Regulation of FXR downstream genes by 7-ELCA and 7β-propyl-CDCA in the presence or absence of 1 µM OCA as the potent FXR agonist. Real-time qPCR analysis of mRNA expression of (A,C) BSEP and (B,D) SHP genes was performed in terminally differentiated HepaRG hepatic cells (A,B), and in primary human hepatocytes (PHH) from one donor treated for 24 h (C,D). (E) SHP protein expression in HepaRG cells after 48 h treatment with OCA alone or in combination with 7-ELCA and 7β-propyl-CDCA. […]
# [4] = tested on: BSEP and SHP mRNA (FXR target genes), HepaRG cells; test: RT-qPCR of FXR target genes in differentiated HepaRG cells; type: cell-based, human; conditions: for BSEP mRNA level upregulated by OCA / SHP mRNA level upregulated by OCA: 40 µM with OCA 1 µM, 24 h; for BSEP and SHP mRNA expression, compound per se: without OCA
# Excerpt: Total RNA from HepaRG cells or primary human hepatocyte samples was isolated by the phenol/chloroform method with TRI-reagent (Merck) according to the manufacturer's protocol. The cDNA was synthesized using a Tetro cDNA Synthesis Kit (Bioline, now Meridian Bioscience, Memphis, United States), and RT-qPCR was run in the Quant Studio 6 instrument using the Fast Advanced Master Mix (ThermoFisher Scientific, Waltham, United States) according to the MIQE protocols. All the probes were obtained from ThermoFisher Scientific: ABCB11 (BSEP, Hs00184824_m1), NR0B2 (SHP, Hs00222677_m1).
# FIGURE 6 Regulation of FXR downstream genes by 7-ELCA and 7β-propyl-CDCA in the presence or absence of 1 µM OCA as the potent FXR agonist. Real-time qPCR analysis of mRNA expression of (A,C) BSEP and (B,D) SHP genes was performed in terminally differentiated HepaRG hepatic cells (A,B), and in primary human hepatocytes (PHH) from one donor treated for 24 h (C,D). (E) SHP protein expression in HepaRG cells after 48 h treatment with OCA alone or in combination with 7-ELCA and 7β-propyl-CDCA. Data were normalized to B2M mRNA or GAPDH protein and are expressed relative to those of control (vehicle-treated) cells.
# [5] = GW4064 1 µM, read-out: IC50, inhibition of GW4064-promoted interaction of SRC-2 and FXR
# [6] = OCA 1 µM, read-out: IC50, inhibition of OCA-induced recruitment of SRC-2 to FXR LBD
SMILES,IC50 (FXR LBD; [5]) [µM],IC50 (FXR LBD; [6]) [µM],IC50 (HepG2) [µM],IC50 (HepaRG) [µM],"viability at 24 h, 10 µM (MTS viability assay [1]; HepG2 cells, HepG2, 24 h) [%]","viability at 24 h, 10 µM (MTS viability assay [1]; HepaRG cells) [%]","viability at 24 h, 10 µM (MTS viability assay [1]; Huh7 cells, Huh7, 24 h) [%]",IC50 (Huh7) [µM],"viability at 24 h, 10 µM (MTS viability assay [2]) [%]",IC50 (AML12) [µM],SHP protein expression in cells treated with OCA [3],BSEP mRNA level upregulated by OCA [4],SHP mRNA level upregulated by OCA [4],"BSEP and SHP mRNA expression, compound per se [4]"
"C/C=C1\C[C@@H]2C[C@H](O)CC[C@]2(C)[C@H]2CC[C@]3(C)[C@@H]([C@H](C)CCC(=O)O)CC[C@H]3[C@H]12 [2a, (E)-3α-Hydroxy-7-ethylidene-5β-cholan-24-oic acid]",6.6 ± 2.9,18 ± 2.7,> 200,> 200,99.7 ± 1.2,119 ± 6,111 ± 9.5,> 200,108 ± 4.8,> 200,FXR antagonistic effect,reduced,reduced,did not have an impact
"CCC[C@@]1(O)C[C@@H]2C[C@H](O)CC[C@]2(C)C2CC[C@@]3(C)C(CC[C@@H]3[C@H](C)CCC(=O)O)C21 (stereo partly drawn) [2f, 3α,7α-Dihydroxy-7β-propyl-5β-cholan-24-oic acid]",13.8 ± 2.5,26.5 ± 2,107 ± 1.1,97.3,94.9 ± 11.7,89.4 ± 2.5,117 ± 2.3,> 100,81.2 ± 1,90.8,FXR antagonistic effect,reduced,reduced,did not have an impact

# — publication PMC8414367, “(E)-7-Ethylidene-lithocholic Acid (7-ELCA) Is a Potent Dual Farnesoid X Receptor (FXR) Antagonist and GPBAR1 Agonist Inhibiting FXR-Induced Gene Expression in Hepatocytes and Stimulating Glucagon-like Peptide-1 Secretion From Enteroendocrine Cells” (Frontiers in Pharmacology, 2021)
